Experimental findings from patent US20240336604A1 (THE UNITED STATES OF AMERICA, AS REPRESENTED BY THE …, priority 2021, published 2024) are described below.

Data set [1] can be described thus: Mouse plasma and brain pharmacokinetic study. In kind it is in vivo. The conditions noted are these: male CD1 mice, single 40 mg/kg i.p. On the procedure: Mouse Plasma and Brain Tissue Sampling: The pharmacokinetic study was conducted by CRO Pharmaron (Beijing, China). The levels of cmp 17 in mouse plasma and brain tissue samples were assessed as follows. A single IP dose (40 mg/kg) of cmp 17 was administered to male CD1 mice. The formulation consisted of NMP/Solutol/PEG-400/normal saline (v/v/v/v, 10:5:30:55). Plasma and brain samples were collected 0.5 h, 1 h, 2 h, 4 h and 8 h post dose. Brain samples were homogenized at a ratio of 1:3 with PBS (W/V, 1:3). The desired serial concentrations of working solutions were achieved by diluting stock solution of analyte with 50% acetonitrile in water solution. 10 μL of working solutions (0.5, 1, 2, 5, 10, 50, 100, 500, 1000, 10000 ng/mL) were added to 10 μL of the blank CD1 mouse plasma/brain homogenate to achieve calibration standards of 0.5-10000 ng/mL (0.5, 1, 2, 5, 10, 50, 100, 500, 1000, 10000 ng/mL) in a total volume of 20 μL. Five quality control samples at 1 ng/mL, 2 ng/mL, 5 ng/mL, 100 ng/mL and 8000 ng/mL for plasma/brain homogenate were prepared independently of those used for the calibration curves. […] After centrifugation at 4° C., 4700 rpm for 15 min, the supernatant was diluted at a ratio of 1:2 with water, and 10 μL of diluted supernatant was injected into the LC/MS/MS system (SCIEX AB API 4000) for quantitative analysis. […]

Data set [2] has as its target T1, D3 DAR (Homo sapiens, UniProt P35462). In words: Functional curve-shift assays using the DiscoverX β-arrestin recruitment assay. In kind it is cell-based. More on the design: host or cells: CHO. From the text:
To further assess the mechanism of action of Cmp. […] 1 (FIGS. 4B and 4D). […] Average curves are shown (mean±SEM from at least 3 experiments each performed in triplicate). […] In contrast, increasing concentrations of Cmp.
1. FIG. 6A-C panels show concentration-response curves of dopamine in the absence or presence of increasing concentrations of compound. Cmp. […] 18 (FIG. 6A), Cmp. 5 (FIG. 6B), and Cmp. 17 (FIG. 6C), respectively. Average curves are shown (mean±SEM from at least 3 experiments, each performed in triplicate).
A D3 DAR β-arrestin cell line from DiscoverX (Fremont, CA) was used as described in the protocol below (Table 2). A CHO cell line engineered to overexpress the D3 DAR fused with a small 42-amino acid fragment of β-galactosidase called ProLink™ and a fusion protein consisting of β-arrestin and a larger N-terminal deletion mutant of β-galactosidase was used (DiscoverX catalogue number 93-0579C2). When the D3 DAR is activated by dopamine, it stimulates binding of β-arrestin to ProLink-tagged D3 DARs, and the two complementary parts of β-galactosidase form a functional enzyme. When substrate (PathHunter® Detection reagent, DiscoverX 93-0001) is added, β-galactosidase hydrolyzes it and generates a chemiluminescent signal.

The next data set deals with D2 DAR (Homo sapiens, UniProt P14416). In words: DiscoverX D2 DAR β-arrestin recruitment assay. The conditions noted are these: EC80 concentration of DA (1 μM). More on the design: host or cells: CHO. Type of data set: cell-based. The procedure, abridged:
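CHO cells co-expressing ProLink-tagged D2 DAR and enzyme-acceptor-fused β-arrestin (PathHunter enzyme-fragment complementation). Receptor activation recruits β-arrestin, reconstituting β-galactosidase; detection reagent hydrolysis gives chemiluminescent read-out. Same PathHunter format used for other dopamine receptor subtypes.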

The target in data set [3] is T1, D3 DAR. The data set is described as follows: DiscoverX D3 DAR β-arrestin recruitment assay. Type of data set: cell-based. More on the design: host or cells: CHO. The procedure, abridged: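 CHO cells overexpressing D3 DAR fused to a ProLink β-galactosidase fragment plus a β-arrestin–β-galactosidase deletion mutant fusion. Receptor activation drives β-arrestin recruitment and enzyme complementation. Chemiluminescent read-out after detection substrate is added.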

Data set [4] concerns the target T1, D3 DAR. In words: Go BRET activation assay, D3 DAR. Type of data set: cell-based. The settings on record: 5 min; EC80 DA (30 nM); read-out: D3 Go BRET Imax. As for the experimental part: Briefly, HEK293T cells transiently expressing either the D2 DAR or D3 DAR and GαoA-Rluc8, untagged-β1, and mVenus-γ2 were harvested with EBSS, plated in 96-well white plates at 20,000 cells/well in DPBS and incubated at RT for 45 min. […] BRET signal was determined by quantifying and calculating the ratio of the light emitted by mVenus (525 nm) over that emitted by RLuc8 (485 nm) using a PHERAstar FSX Microplate Reader (BMG Labtech).

T1 sequence (P35462 whole entry): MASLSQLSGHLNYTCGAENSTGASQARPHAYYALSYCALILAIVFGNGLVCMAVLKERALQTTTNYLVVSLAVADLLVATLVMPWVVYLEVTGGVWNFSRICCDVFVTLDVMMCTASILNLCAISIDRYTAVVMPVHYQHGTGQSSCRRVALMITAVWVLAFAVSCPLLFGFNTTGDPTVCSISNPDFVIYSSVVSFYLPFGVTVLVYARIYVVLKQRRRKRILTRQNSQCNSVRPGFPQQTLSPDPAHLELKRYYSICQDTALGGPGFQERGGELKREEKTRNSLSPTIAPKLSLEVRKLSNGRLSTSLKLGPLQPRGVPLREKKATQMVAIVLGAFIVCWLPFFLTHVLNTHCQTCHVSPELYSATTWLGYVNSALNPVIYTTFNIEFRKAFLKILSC
Sequence of D2 DAR (P14416 whole entry, the tested form may be a part): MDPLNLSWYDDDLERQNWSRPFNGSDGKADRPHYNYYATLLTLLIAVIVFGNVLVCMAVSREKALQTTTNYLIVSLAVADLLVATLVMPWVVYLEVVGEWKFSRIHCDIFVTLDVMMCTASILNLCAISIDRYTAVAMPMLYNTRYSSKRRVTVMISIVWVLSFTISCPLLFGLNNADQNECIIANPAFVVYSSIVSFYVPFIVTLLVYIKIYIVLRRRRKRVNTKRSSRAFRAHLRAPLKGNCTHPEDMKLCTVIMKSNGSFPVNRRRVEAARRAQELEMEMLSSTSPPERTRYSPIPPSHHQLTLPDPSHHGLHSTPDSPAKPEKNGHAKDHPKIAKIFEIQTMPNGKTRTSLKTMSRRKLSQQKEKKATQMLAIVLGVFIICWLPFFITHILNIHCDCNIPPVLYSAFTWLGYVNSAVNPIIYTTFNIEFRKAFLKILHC

As for `Cc1[nH]c(C)c(S(=O)(=O)Nc2ccc(C(F)(F)F)c(Cl)c2)c1C(=O)N1CCC(F)(F)C1` [Cmp. 17, N-(3-chloro-4-(trifluoromethyl)phenyl)-4-(3,3-difluoropyrrolidine-1-carbonyl)-2,5-dimethyl-1H-pyrrole-3-sulfonamide], the brain penetration entry in data set [1] is recorded as “brain penetrant”. For the same molecule, the half-life in data set [1] (mouse, in vivo, ip) is around 4 h. In addition, the IC50 on D3 DAR [2] (agonist dopamine, read-out: Functional IC50 for decreasing the Emax of dopamine) was 1.7 µM; at D2 DAR it was above 100 µM; at D3 DAR [3] (EC80 concentration of DA (30 nM), read-out: D3 DAR IC50) it was below 10 µM. The “mode of antagonism in curve-shift assays” value on D3 DAR [2] (versus agonist (dopamine, pramipexole)) is “noncompetitive antagonism”. Moreover, at D2 DAR, the “D2 DAR Imax” value is “NA (“NA” indicates not active)”. Besides, the Emax on D3 DAR [3] (Imax=maximum inhibition, EC80 DA (30 nM)) was 80 to 100%; at D3 DAR [4] it was above 100%.
